Test results reported in ChEMBL document CHEMBL5321224, “Antimicrobial peptides: Structure, mechanism, and modification” (2023).
The source made the active and inactive calls. No cut-off for these calls is given here.

Tests used:
Format in all cases: functional
Escherichia coli [1] = assay: Antimicrobial activity against Escherichia coli assessed as reduction of microbial growth
Pseudomonas aeruginosa [2] = assay: Antimicrobial activity against Pseudomonas aeruginosa assessed as reduction of microbial growth
Staphylococcus aureus [3] = assay: Antimicrobial activity against Staphylococcus aureus assessed as reduction of microbial growth
Escherichia coli [4] = assay: Antimicrobial activity against Escherichia coli assessed as reduction of microbial growth incubated for 18 to 24 hrs by microdilution method; details: time 18-24 hrs
Pseudomonas aeruginosa [5] = assay: Antimicrobial activity against Pseudomonas aeruginosa assessed as reduction of microbial growth incubated for 18 to 24 hrs by microdilution method; details: time 18-24 hrs
Staphylococcus aureus [6] = assay: Antimicrobial activity against Staphylococcus aureus assessed as reduction of microbial growth incubated for 18 to 24 hrs by microdilution method; details: time 18-24 hrs
Escherichia coli [7] = assay: Antimicrobial activity against Escherichia coli
Pseudomonas aeruginosa [8] = assay: Antimicrobial activity against Pseudomonas aeruginosa
Staphylococcus aureus [9] = assay: Antimicrobial activity against Staphylococcus aureus
Staphylococcus aureus [10] = assay: Antimicrobial activity against Staphylococcus aureus assessed as reduction of microbial growth incubated for 24 hrs
Escherichia coli [11] = assay: Antimicrobial activity against Escherichia coli assessed as reduction of microbial growth incubated for 24 hrs
Pseudomonas aeruginosa [12] = assay: Antimicrobial activity against Pseudomonas aeruginosa assessed as reduction of microbial growth incubated for 24 hrs
Escherichia coli [13] = assay: Antimicrobial activity against Escherichia coli D21 assessed as reduction of microbial growth; details: time 24 hrs
Pseudomonas aeruginosa [14] = assay: Antimicrobial activity against Pseudomonas aeruginosa OT97 assessed as reduction of microbial
Staphylococcus aureus [15] = assay: Antimicrobial activity against Staphylococcus aureus Cowan 1 assessed as reduction of microbial

Substance | MIC (Escherichia coli [4]) [µg/mL] | MIC (Pseudomonas aeruginosa [5]) [µg/mL] | MIC (Staphylococcus aureus [6]) [µg/mL] | LD (Escherichia coli [7]) [µM] | LD (Pseudomonas aeruginosa [8]) [µM] | LD (Staphylococcus aureus [9]) [µM] | also measured
H-GIGKFLHSAKKFGKAFVGEIMNS-NH2 | – | – | – | – | – | – | MIC (Escherichia coli [1]): 128 µg/mL; MIC (Pseudomonas aeruginosa [2]): 256 µg/mL; MIC (Staphylococcus aureus [3]): > 256 µg/mL
H-GIGKFLHSAKKFGKAFVGEIMNS-OH [MAGAININ 2] | 50 | 50 | ≥ 100 | – | – | – | MIC (Escherichia coli [1]): 1 µg/mL; MIC (Pseudomonas aeruginosa [2]): inactive; MIC (Staphylococcus aureus [3]): inactive
H-GIGKFLHSAKKFGKAFVGEIMNSKKKKKKKKKK-OH | 50 | 3.1 | 3.1 | – | – | – | –
H-KFLHSAKKFGKAFVGEIMNS-OH | – | – | – | – | – | – | MIC (Escherichia coli [1]): 20 µg/mL; MIC (Pseudomonas aeruginosa [2]): inactive; MIC (Staphylococcus aureus [3]): inactive
H-KKKKKKKKKKGIGKFLHSAKKFGKAFVGEIMNS-OH | 6.25 | 6.25 | 12.5 | – | – | – | –
H-KWKLFKKGIGAVLKV-OH | – | – | – | 4 | 15 | 29 | –
H-KWKLFKKIEKVGQNIRDGGIGAVLKV-OH | – | – | – | – | – | – | LD (Staphylococcus aureus [10]): 600 µM; LD (Escherichia coli [11]): 1 µM; LD (Pseudomonas aeruginosa [12]): 15 µM
H-KWKLFKKIGAVLKVL-OH | – | – | – | 1 | 4 | 2 | –
H-KWKLFKKIGIGAVLKVLK-OH | – | – | – | 0.5 | 3 | 7 | –
H-KWKLFKKIGIGAVLKVLKTTGLPALI-OH | – | – | – | – | – | – | LD (Escherichia coli [13]): 0.3 µM; LD (Pseudomonas aeruginosa [14]): 0.7 µM; LD (Staphylococcus aureus [15]): 1 µM
H-KWKLFKKVLKVLTTG-OH | – | – | – | 0.5 | 2 | 8 | –
H-RRRRRRRRRRGIGKFLHSAKKFGKAFVGEIMNS-OH | 3.12 | 6.25 | 25 | – | – | – | –
